These results are taken from ChEMBL document CHEMBL2074550, “Carbamazepine is not a substrate for P-glycoprotein” (Br J Clin Pharmacol, 2001).

Series [1] deals with T1, ATP-dependent translocase ABCB1 (Homo sapiens, UniProt P08183). In words: TP_TRANSPORTER: inhibition of Rhodamine 123 efflux (R123: 1.5 ug/mL, Carbamazepine: 100 uM) in human lymphocytes. It is filed as functional, cell-based. The conditions noted are these: lymphocyte.
Series [2] has as its target T1, ATP-dependent translocase ABCB1. In words: TP_TRANSPORTER: transepithelial transport (basal to apical) in Caco-2 cells. Format: functional, cell-based.
The target of series [3] is P-glycoprotein 1 and 3 (MDR1a/MDR1b) (Mus musculus, UniProt P21447+P06795). Briefly: TP_TRANSPORTER: no change in brain concentration in mdr1a/1b(-/-) mouse. Format: functional, organism-based. The conditions noted are these: in vivo.

Structures are written as SMILES.

T1 sequence (P08183 whole entry): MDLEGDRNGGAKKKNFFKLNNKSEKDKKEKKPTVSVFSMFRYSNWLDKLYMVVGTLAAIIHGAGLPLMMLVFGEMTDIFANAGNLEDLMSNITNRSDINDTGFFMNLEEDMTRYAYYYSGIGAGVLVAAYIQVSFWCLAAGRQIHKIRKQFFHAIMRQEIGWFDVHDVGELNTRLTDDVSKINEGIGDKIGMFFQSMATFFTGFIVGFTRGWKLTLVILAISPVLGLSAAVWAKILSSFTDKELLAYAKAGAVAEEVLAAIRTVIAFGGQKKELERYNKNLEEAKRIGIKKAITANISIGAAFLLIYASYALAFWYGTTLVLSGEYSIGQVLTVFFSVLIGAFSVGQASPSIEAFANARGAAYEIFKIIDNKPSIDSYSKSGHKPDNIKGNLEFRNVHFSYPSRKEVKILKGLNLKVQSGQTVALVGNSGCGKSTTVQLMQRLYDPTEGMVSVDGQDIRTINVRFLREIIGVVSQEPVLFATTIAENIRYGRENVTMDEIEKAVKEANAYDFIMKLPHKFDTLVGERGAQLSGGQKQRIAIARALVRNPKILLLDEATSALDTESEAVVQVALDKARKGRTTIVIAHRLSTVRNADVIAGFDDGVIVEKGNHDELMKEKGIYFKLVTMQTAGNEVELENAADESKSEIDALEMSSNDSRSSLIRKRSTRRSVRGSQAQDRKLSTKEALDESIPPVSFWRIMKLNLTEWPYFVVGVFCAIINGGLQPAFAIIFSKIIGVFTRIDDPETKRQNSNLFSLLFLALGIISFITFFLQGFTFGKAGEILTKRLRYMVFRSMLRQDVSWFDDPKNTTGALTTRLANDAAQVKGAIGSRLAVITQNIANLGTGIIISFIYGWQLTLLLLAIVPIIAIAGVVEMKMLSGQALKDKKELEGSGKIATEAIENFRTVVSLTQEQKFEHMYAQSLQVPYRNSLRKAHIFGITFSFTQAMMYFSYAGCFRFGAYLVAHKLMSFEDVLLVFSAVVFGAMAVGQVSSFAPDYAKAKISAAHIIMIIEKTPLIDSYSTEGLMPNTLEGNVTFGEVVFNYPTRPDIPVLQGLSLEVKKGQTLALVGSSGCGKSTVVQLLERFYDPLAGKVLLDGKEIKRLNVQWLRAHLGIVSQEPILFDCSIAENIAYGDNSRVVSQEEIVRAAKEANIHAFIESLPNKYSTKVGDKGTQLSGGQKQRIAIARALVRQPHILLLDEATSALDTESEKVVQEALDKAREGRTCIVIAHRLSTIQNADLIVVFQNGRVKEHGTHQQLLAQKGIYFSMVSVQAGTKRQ

For the compound `NC(=O)N1c2ccccc2C=Cc2ccccc21` [CARBAMAZEPINE], the Activity result in series [1] was “is not an inhibitor [-]”; in series [2], “is not a substrate [-]”; in series [3], “is not a substrate [-]”.
